Marks after values point to notes of the source that are not given here.
How the values were obtained:
[1] = tested on: Staphylococcus epidermidis 61540-51; assay: Microorganism count in 2% solutions of sodium salts (Example 19); format: cell-based; settings: 2% solution, pH about 7, +37°C
Method: (§1) Staphylococcus epidermidis 61540-51 and Escherichia coli ATTC 8739 were each added to a respective solution in a concentration of about 3000-10 000/ml. These samples were then incubated at +37°C for 20 hours. A microorganism count was carried out after 2 and 20 hours, in a manner described in microbiological literature. Parallel with the aforesaid tests, a control was run in pure phosphate buffer and in Tryptone soya broth (TSB) with additions of Staphylococcus epidermidis 61540-51 and Escherichia coli ATTC 8739 respectively, to ascertain the viability of the microorganisms to survive, i.e. the ability of the microorganisms to grow under the ideal conditions provided. After 2 hours, the number of organisms/ml of type Staphylococcus epidermidis in the phosphate solution was 4300 and after 20 hours 1. Growth could be established in TSB after 20 hours. […] This was also the case with the sodium salt of 2 percent 5-methyl-3-oxo-hexanoic acid ethyl ester. After 2 hours, the microorganism count of Escherichia coli in the phosphate solution was 3400, and after 20 hours 7400. Growth was established in TSB after 20 hours. In the solution containing 2% sodium salt of 4-methyl-3-oxo-pentanoic acid ethyl ester, the organism count was 2000 after 2 hours and 0 after 20 hours. With respect to the sodium salt of 5-methyl-3-oxo-hexanoic acid ethyl ester, the organism count was 44 after 2 hours and 0 after 20 hours.

[2] = tested on: Escherichia coli ATTC 8739; assay: as above; format: cell-based; settings: 2% solution, pH about 7, +37°C
Method: as §1

[3] = Unspecified toxicity, intravenous injection in mice; format: in vivo; settings: Example 22: 37 mg per mouse i.v.
Method: Unspecified toxicity was tested on four mice by first weighing the animals, and then injecting the animals intravenously with 0.5 ml of an emulsion of 4-methyl-3-oxo-pentanoic acid having a concentration of 50 mg/ml for 10 minutes. Each mouse received a dosage of 25 mg. The emulsion was prepared aseptically, by emulsifying sterile-filtered ester with a sterilized dispersion of egg-yolk phospholipids. […] The increase in weight of the animals was normal during the observation period (weight increase: X=4.5 g, S.D. 0.5).
The unspecific toxicity was tested on 5 mice by first weighing the animals, and then injecting intravenously 0.5 ml of an emulsion of 4-methy-3-oxo-pentanoic acid ethyl ester having a concentration of 5 mg/ml for 15 seconds. The emulsion was aseptically prepared, by emulsifying sterile-filtered ester with a sterilized dispersion of egg-yolk phospholipids. […] Each mouse received a total dosage of 2.5 mg.
Unspecified toxicity was tested on four mice by first weighing the animals, and then injecting intravenously 0.2 ml of an emulsion of 4-methyl-3-oxo-pentanoic acid ethyl ester having a concentration of 33 mg/ml for 30 seconds. Each mouse received a dosage of 6.7 mg. The emulsion was prepared aseptically, by emulsifying sterile-filtered ester with a sterilized dispersion of egg-yolk phospholipids. […]

[4] = tested on: E. coli; assay: Microorganism count in emulsions diluted to 2% (Example 20, Table 2); format: cell-based; settings: emulsion diluted to 2% with PBS pH=7.00, +37°C
[5] = after 2 hours, inoculum about 3000-10 000/ml

| Compound | number of organisms [1, 5] | number of organisms ([1]; after 20 hours) | organism count [2, 5] | organism count ([2]; after 20 hours) | time after completing the injection until return to normal [3] [min] | weight development over the following 7 days [3] | number of microorganisms ([4]; 0 hr) | number of microorganisms ([4]; 2 hrs) | number of microorganisms ([4]; 20 hrs) |
| --- | --- | --- | --- | --- | --- | --- | --- | --- | --- |
| CCOC(=O)CC(=O)C(C)C.[Na] [sodium salt of 4-methyl-3-oxo-pentanoic acid ethyl ester] | No organisms were found | No organisms were found | 2000 | 0 | – | – | – | – | – |
| CCOC(=O)CC(=O)CC(C)C.[Na] [sodium salt of 5-methyl-3-oxo-hexanoic acid ethyl ester] | No organisms were found | No organisms were found | 44 | 0 | 1 | normal weight development | – | – | – |
| CCOC(=O)C(=O)C(C)C [Ethyl-3-methyl-2-oxo-butyrate] | – | – | – | – | – | – | 0* | 0 | 0 |
| CCOC(=O)C(C)=O [Ethyl-pyruvate] | – | – | – | – | – | – | 0* | 0 | 0 |
